The values that follow come from ChEMBL document CHEMBL1133049, “Expeditious synthesis and cytotoxic activity of new cyanoindolo[3,2-c]quinolines and benzimidazo[1,2-c]quinazolines” (Bioorg Med Chem Lett, 2000).

pIC50: −log10 of the molar value. Calls of active or inactive are those of the source. The rule behind the calls is not given here.

For assay [1], the system named is L1210. Description: Antiproliferative activity of compound was assessed using the murine L1210 leukemia cell line. The assay is classed as functional, cell-based. The conditions noted are these: Mus musculus.
The test system of assay [2] is L1210. Description: Percent perturbations evaluated at 10 uM induced on L1210 cells in the >G2+M (8N) phase of cell cycle. The assay is classed as functional, Mus musculus.
In assay [3] the test system is L1210. Description: Percent perturbations evaluated at 10 uM induced on L1210 cells in the G2+M phase of cell cycle. The assay is classed as functional, Mus musculus.
The subject of a further assay is HT-29. Description: Cytotoxicity of compound was evaluated on the HT-29 cell line. The assay is classed as functional, cell-based. The conditions noted are these: Homo sapiens.
Assay [4] concerns L1210. Description: Percent perturbations evaluated at 10 uM induced on L1210 cells in the >G2+M (8N) phase of cell cycle; inactive. The assay is classed as functional, cell-based. The conditions noted are these: Mus musculus.

One may read the pIC50 as −log10 of the IC50, conventionally taken in molar units. The low end stands for a large IC50, the high end for a small IC50. In turn, `N#Cc1[nH]c2ccccc2c2nc3ccccc3c1-2` gave a pIC50 with L1210 [1] below 4.00.

As to `CN(C)CCn1c2ccccc2c2c(C#N)nc3ccccc3c21`, the Perturbations amounted to 21% in the assay on L1210 [2] and 50% in the assay with L1210 [3]. Besides, the pIC50 in the assay with HT-29 is 6.17; with L1210 [1], 5.51.

The compound `c1ccc2c(c1)ncn1c3ccccc3nc21` gave a pIC50 in the assay with L1210 [1] below 4.00.

`N#Cc1nc2ccccc2c2nc3ccccc3n12` showed a Perturbations with L1210 [3] of 61%. In addition, the pIC50 is 5.28 in the assay on HT-29 and 5.27 in the assay on L1210 [1]. Also, the Perturbations result with L1210 [4] is “inactive”.

In turn, `Cn1c2ccccc2c2c(C#N)nc3ccccc3c21` gave a pIC50 with L1210 [1] of 4.23.
